Assay results as given in paper PMC11475369, “Exploring the Potential of Synthetic Cannabinoids: Modulation of Biological Activity of Normal and Cancerous Human Colon Epithelial Cells” (Cells, 2024).
≈ marks a conversion by molar mass, not a printed value.

Assays:
[1] = test system: HT29 cells; experiment: MTT assay, metabolic activity of HT29 cells; format: cell-based; details: Homo sapiens, HT-29; HT29 colon tumor cells, 24 h incubation; read-out: IC50 Values (MTT method)
Protocol: (§1) The HT29 cell line (ATCC no. HTB-38) (human colon adenocarcinoma) was used in the present study. Cells were cultivated in RPMI 1640 culture medium with 10% fetal calf serum (FCS) (GibcoTM, Paisley, UK), supplemented with antibiotics (100 U/mL penicillin and 100 μg/mL streptomycin) (Sigma, St. Louis, MO, USA). The cell culture was performed in standard conditions, i.e., at 37 °C in a humidified atmosphere with 5% CO2. The CCD 841 CoTr cell line (ATCC no. CRL-1807) (human normal colon epithelium) was cultivated in RPMI 1640 +DMEM (1:1) medium (Sigma, St. Louis, MO, USA) with 10% FCS and the addition of antibiotics. The culture was carried out at 34 °C in a 5% CO2/95% air atmosphere.
(§2) After seeding (1 × 10^5 cells/mL) in a 96-well plate, the cells were incubated for 24 h. Thereafter, the tested compounds (100 μL) at a concentration range of 0–200 μg/mL in the culture medium were added to the wells (100 μL). The incubation lasted for 24 h. After that time, an MTT solution (5 mg/mL, 25 μL/well) was added to each well. The incubation was continued for another 3 h. After the incubation, 10% sodium dodecyl sulfate (SDS) in 0.01 M HCl (100 μL) was added in order to dissolve the purple formazan crystals. Solubilization was carried out overnight. Finally, spectrophotometric measurement was performed at 570 nm using an EL800 Universal Microplate Reader (BioTek Instruments, Winooski, VT, USA).

[2] = test system: CCD 841 CoTr cells; experiment: MTT assay, metabolic activity of CCD 841 CoTr cells; format: cell-based, human; details: for IC50: Homo sapiens, CCD-841, 24 h, read-out: IC50 Values (MTT method)
Protocol: as §1, §2

[3] = test system: HT29 cells; experiment: Flow cytometry annexin V-FITC/PI, cell death types in HT29 cells; format: cell-based, human; details: HT29, 25 μg/mL, 24 h; for viability at 25 µg/mL: Homo sapiens, HT-29, read-out: Percentage of viable cells
Protocol: (§3) In a further flow cytometric study measuring normal and tumor cell death types, the cells were exposed to the cannabinoids at a concentration of 25 μg/mL for 24 h.
(§4) The annexin V-fluorescein isothiocyanate (FITC)/propidium iodide (PI) apoptosis kit (BD Biosciences, BD Pharmingen™, San Jose, CA, USA) was used for the quantitative analysis of cannabinoid-induced cell death.
(§5) For the analyses, both adhered (after detaching the cells with 10 mM EDTA in PBS w/o Ca^2+ and Mg^2+ ions solution) and floating cells were collected after 24 h of incubation with the tested cannabinoids. After collection, the cells were gently centrifuged (1000 rpm/5 min.). Next, the supernatant was discarded, and the cell pellet was suspended in warm PBS w/o Ca^2+ and Mg^2+ ions and incubated for 5 min. at room temperature. The centrifugation procedure was repeated again and, following the manufacturer’s procedure, the cells were suspended in 100 μL of 1X Annexin V Binding Buffer with 5 μL of FITC Annexin V […] and 5 μL of propidium iodide (PI) (5 mM). The preparation was gently vortexed and incubated at room temperature for 15 min. in the dark. After that time, the cells were subjected to cytometric analysis. Before dosing the cells into the cytometer, 400 μL of 1X Binding Buffer was added. The cells were analyzed using a flow cytometer (BD FACSCalibur) with CellQuest Pro Version 6.0 software within 1 h after the staining was completed.

[4] = Flow cytometry annexin V-FITC/PI, cell death types in CCD 841 CoTr cells; format: cell-based, human; details: human, CCD 841 CoTr cells (normal cells), read-out: Percentage of viable cells
Protocol: as §3, §4, §5

[5] = test system: CCD 841 CoTr cells; experiment: as above; format: cell-based, human; details: 25 μg/mL, 24 h
Protocol: as §3, §4, §5

[6] = test system: HT29 cells; experiment: Flow cytometry (PI) cell cycle analysis of HT29 cells; format: cell-based, human; details: HT29, 25 μg/mL, 24 h
Protocol: In the flow cytometric study, we assessed the impact of the cannabinoids at a concentration of 25 μg/mL on the distribution of cell cycle phases in the normal and cancer cells after 24 h incubation. Both adhered, and non-adsorbed (floating) cells were used to perform the analyses. They were collected after 24 h of incubation with the tested cannabinoids and centrifuged (3000 rpm/5 min.). Next, the cell pellet was rinsed and suspended in PBS w/o Ca^2+ and Mg^2+ ions and centrifuged again (3000 rpm/5 min.). The cell pellet was suspended and fixed in 70% ethanol (1 mL). Untreated cells served as a control. The cells were stored at −20 °C for 1 week. After that time, in accordance with the manufacturer protocol, the cells were subjected to the PI staining procedure (PI/RNase Staining Buffer, BD PharmingenTM, BD Biosciences, San Jose, CA, USA). Briefly, 1 mL of PBS w/o Ca^2+ and Mg^2+ ions was added to 1 mL of ethanol and incubated with gentle stirring for 5 min. at room temperature. Next, the cells were centrifuged (3000 rpm/5 min.) and suspended in PBS w/o Ca^2+ and Mg^2+ ions with gentle stirring for 5 min. at room temperature. The cells were centrifuged once again (3000 rpm/5 min.) and the cell pellet was suspended in 500 μL of PI/RNase Staining Buffer. The incubation was carried out for 15 min. at room temperature. Finally, the intensity of the PI fluorescence was measured using FACS Calibur (BD Pharmingen^TM). The obtained data were analyzed using Cell Quest Pro Version 6.0. for the Macintosh operating system (BD Pharmingen^TM). The percentage of cells in the appropriate phases of the cycle was calculated based on all analyzed gated cells. A total of 10,000 events were measured per sample.

[7] = CCD 841 CoTr colon normal cells, 24 h incubation

Compound	IC50 [1]	IC50 [2, 7]	Percentage of cells in early apoptosis [3]	Percentage of cells in late apoptosis [3]	Percentage of cells in necrosis [3]	Reduction in the number of viable cells compared to the control [3]	viability at 25 µg/mL [3]	viability at 24 h, 25 μg/mL [4]	Percentage of cells in early apoptosis [5]	Percentage of cells in late apoptosis [5]	Percentage of cells in necrosis [5]	Reduction in the number of viable normal cells compared to the control [5]	Increase in the number of cells in the sub-G1 phase compared to the control [6]	Percentage of cells in G1 phase [6]	Percentage of cells in G2 phase [6]	Percentage of cells in S phase [6]	Percentage of cells in sub-G1 phase [6]	Cells in late apoptosis, more than in the control [3]	Cells in necrosis, more than in the control [3]	other results
CCCCCc1cc(O)c2c(c1)OC(C)(CCC=C(C)C)C=C2 (stereo not drawn) [CBC, cannabichromene]	176 µg/mL (≈ 560 µM)	75.2 µg/mL (≈ 239 µM)	1.36 ± 0.18%	6.84 ± 0.71 %	1.18 ± 0.39%	7.13%	88 ± 2.34%	91.4 ± 1.19%	2.51 ± 0.54%	5.58 ± 1.02%	0.54 ± 0.39%	did not significantly affect	1.19%	50.90 ± 0.73%	26.23 ± 0.39 %	16.71 ± 0.37%	2.52 ± 0.10 %	–	–	IC50 Values (MTT method) [2, 7]: 75.29 µg/mL (≈ 239 µM); Stimulation of cell metabolism compared to the control (MTT) ([2]; CCD 841 CoTr, lowest concentration, 24 h): over 4%; Reduction in the number of cells in the G2 phase compared to the control [6]: 3.24%
CCCCCc1cc2c3c(c1)OC(C)(C)C1CCC(C)(CC31)O2 (stereo not drawn) [CBT, cannabicitran]	69.1 µg/mL (≈ 220 µM)	55.5 µg/mL (≈ 177 µM)	0.91 ± 0.16%	52.23 ± 1.26 %	3.96 ± 0.40 %	52.25%	42.9 ± 0.96%	87.3 ± 2.11%	2.90 ± 0.74%	8.72 ± 1.91 %	1.08 ± 0.56 %	5.02%	17.93%	41.86 ± 0.64 %	17.90 ± 0.81 %	18.64 ± 0.81 %	19.26 ± 0.67 %	49.2%	3.24%	Cells in late apoptosis, more than in the control [5]: 3.12%; Effect on cell cycle transitions (in words) [6]: limited the transition of cells from the S phase to the G2 phase
CCCCCc1cc(O)cc(O)c1C/C=C(\C)CCC=C(C)C [abn-CBG, abnormal cannabigerol]	19.6 µg/mL (≈ 62 µM)	15.3 µg/mL (≈ 48.5 µM)	3.65 ± 0.65 %	71.86 ± 2.36 %	19.75 ± 2.50 %	90.42%	4.74 ± 0.39%	25.5 ± 1.2%	8.57 ± 1.67 %	18.36 ± 3.62 %	47.55 ± 4.12 %	66.79%	80.59%	7.97 ± 0.35 %	3.62 ± 0.54 %	5.09 ± 0.50 %	81.92 ± 1.80 %	68.83%	19.03%	Reduction of the metabolism of normal cells (MTT) ([2]; CCD 841 CoTr, 25 μg/mL, 24 h): over 81%; Cells in necrosis, more than in the control [5]: 47.27%; Early and late apoptosis together, dying cells compared to the control [5]: 19.52%
